IC50 and Ki data for five molecules are collected here from BindingDB's records for doi:10.7270/Q2DF6PMF (Nmmlsc, 2007).

The structures appear in SMILES notation.

The target of the assay is T1, N-formyl peptide receptor 2 (Homo sapiens, UniProt P25090).
T1 sequence (P25090 whole entry): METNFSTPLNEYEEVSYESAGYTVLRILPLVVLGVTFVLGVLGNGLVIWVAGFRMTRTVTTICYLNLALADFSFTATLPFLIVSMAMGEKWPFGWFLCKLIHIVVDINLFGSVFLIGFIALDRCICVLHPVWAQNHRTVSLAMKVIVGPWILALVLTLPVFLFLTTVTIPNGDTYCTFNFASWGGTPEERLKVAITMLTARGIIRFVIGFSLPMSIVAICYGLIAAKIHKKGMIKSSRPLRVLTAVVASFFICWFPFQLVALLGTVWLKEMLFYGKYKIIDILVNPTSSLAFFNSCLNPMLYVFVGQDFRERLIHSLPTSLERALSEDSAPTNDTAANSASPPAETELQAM
The experiment in a line: concentration-dependent FPRL1 ligand displacement – cell-based, FPR counter-screen, fluorescent ligand, dose response (AID 520). For orientation: A counterscreen serves to expose hits that act by an unwanted route or on another target.
One may read the IC50 as the concentration needed to halve the response being measured. Low values mean greater potency in that assay, high ones weaker potency in that assay. For orientation: Ki means a dissociation constant, usually derived from enzyme kinetics or from competition with a known ligand. Low values mean tighter binding, high ones weaker binding. In turn, `O=C1C(=O)N(CCCN2CCOCC2)C(c2ccccn2)C1C(=O)c1cc2ccccc2o1` (stereo not drawn) [3-(1-benzofuran-2-carbonyl)-4-hydroxy-1-(3-morpholin-4-ylpropyl)-2-pyridin-2-yl-2H-pyrrol-5-one] registered an IC50 greater than 66.7 µM and a Ki greater than 40.3 µM.

`O=c1c(C23CC4CC(CC(C4)C2)C3)c(O)n(-c2ccccc2)n1-c1ccccc1` [MLS000526352] registered an IC50 greater than 66.7 µM and a Ki greater than 40.3 µM.

As for `O=C1C(=O)N(CCc2ccccc2)C(c2cccnc2)C1C(=O)c1ccco1` (stereo not drawn) [3-(furan-2-carbonyl)-4-hydroxy-1-(2-phenylethyl)-2-pyridin-3-yl-2H-pyrrol-5-one], the IC50 was greater than 66.7 µM and the Ki is greater than 40.3 µM.

`Cc1cc2oc(C(=O)NC3CCS(=O)(=O)C3)c(C)c2cc1C` (stereo not drawn) [MLS000063255] returned an IC50 greater than 66.7 µM.

On to `CC(=O)OCCNc1cc(N2CCN(C)CC2)c2noc3c2c1C(=O)c1ccccc1-3` [MLS000118373], for which the IC50 was determined as 6.9 µM.
